Reference: ChEMBL document CHEMBL3871277, “Synthesis and anti-metastatic effects of pregn-17(20)-en-3-amine derivatives” (Eur J Med Chem, 2016)
Calls of active or inactive are those of the source. No cut-off for these calls is given here.

Legend:
[1] = Antimigratory activity against EGF induced chemotaxis in human MDA-MB-231 cells preincubated for 24 hrs followed by EGF addition for 3.5 hrs by light microscopy; assay type: functional, cell-based
[2] = system: MDA-MB-231; experiment: Antimigratory activity in human MDA-MB-231 cells assessed as decrease in cell adhesion at 0.25 uM after 24 hrs by MTT assay; assay type: functional, cell-based
[3] = system: MDA-MB-231; experiment: Inhibition of PI3K-p85 in human MDA-MB-231 cells assessed as reduction in Akt phosphorylation by Western blot analysis; assay type: cell-based
[4] = Effect on PKCzeta protein expression in human MDA-MB-231 cells at 0.25 to 6.75 uM by Western blot analysis; assay type: ADME, cell-based; conditions: mda-mb-231, 6.75 µM
[5] = system: MDA-MB-231; experiment: Antiinvasive activity in human MDA-MB-231 cells after 24 hrs by transwell migration assay; assay type: functional, cell-based
[6] = system: MDA-MB-231; experiment: Inhibition of PI3K-p85 in human MDA-MB-231 cells assessed as reduction in PKCzeta phosphorylation by Western blot analysis; assay type: cell-based
[7] = system: MDA-MB-231; experiment: Antimigratory activity in human MDA-MB-231 cells after 24 hrs by wound healing assay; assay type: functional, cell-based
[8] = target: Integrin beta-1 (Homo sapiens) (UniProt P05556); experiment: Inhibition of integrin-beta1 phosphorylation in human MDA-MB-231 cells by Western blot analysis; assay type: cell-based
Chain of Integrin beta-1 (Homo sapiens) (P05556 whole entry): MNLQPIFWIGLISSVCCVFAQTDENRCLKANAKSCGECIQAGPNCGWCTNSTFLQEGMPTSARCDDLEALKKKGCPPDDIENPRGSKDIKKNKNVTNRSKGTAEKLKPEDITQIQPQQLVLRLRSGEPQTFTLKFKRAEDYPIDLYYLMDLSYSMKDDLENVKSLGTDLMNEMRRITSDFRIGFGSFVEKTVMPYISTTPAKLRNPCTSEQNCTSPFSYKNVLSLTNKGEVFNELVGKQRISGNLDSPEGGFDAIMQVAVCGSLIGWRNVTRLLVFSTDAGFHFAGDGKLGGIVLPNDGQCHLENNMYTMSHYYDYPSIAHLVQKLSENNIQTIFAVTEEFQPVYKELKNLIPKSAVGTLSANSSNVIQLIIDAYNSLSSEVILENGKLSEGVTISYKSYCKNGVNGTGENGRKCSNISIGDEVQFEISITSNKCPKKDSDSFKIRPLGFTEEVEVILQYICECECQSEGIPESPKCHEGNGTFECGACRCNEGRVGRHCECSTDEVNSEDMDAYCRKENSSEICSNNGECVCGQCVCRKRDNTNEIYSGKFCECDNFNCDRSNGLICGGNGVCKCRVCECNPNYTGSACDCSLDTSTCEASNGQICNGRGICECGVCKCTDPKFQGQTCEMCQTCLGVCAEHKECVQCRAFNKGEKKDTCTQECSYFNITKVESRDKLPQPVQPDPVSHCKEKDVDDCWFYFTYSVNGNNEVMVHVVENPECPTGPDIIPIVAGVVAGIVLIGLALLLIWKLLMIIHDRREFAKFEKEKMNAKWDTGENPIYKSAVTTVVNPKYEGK

[9] = system: MDA-MB-231; experiment: Inhibition of PI3K-p85 phosphorylation in human MDA-MB-231 cells by Western blot analysis; assay type: cell-based
[10] = Effect on integrin-beta1 protein expression in human MDA-MB-231 cells at 5 to 45 uM by Western blot analysis; assay type: ADME, cell-based; conditions: mda-mb-231, 45 µM
[11] = system: MDA-MB-231; experiment: Antimigratory activity in human MDA-MB-231 cells assessed as decrease in cell adhesion to fibronectin at 1 to 40 uM after 24 hrs by MTT assay; assay type: functional, cell-based
[12] = Anti-invasive activity in human HepG2 cells at 4.5 uM after 24 hrs by MTT dye based boyden chamber assay; assay type: functional
[13] = Antimigratory activity in human HepG2 cells at 4.5 uM after 24 hrs by wound healing assay; assay type: functional
[14] = Homo sapiens, MDA-MB-231, read-out: IC50

IC50 [1, 14]	Compound	further results
21.4 µM	C/C=C1/[C@H](O)C[C@H]2[C@@H]3CCC4C[C@@H](N5CCCCC5)CC[C@]4(C)[C@H]3CC[C@]12C (stereo partly specified)	
	FC(F)c1nc2ccccc2n1-c1nc(N2CCOCC2)nc(N2CCOCC2)n1	Activity [2]: Active
> 50 µM	C/C=C1/[C@H](O)C[C@H]2[C@@H]3CCC4C[C@H](N(C)C)CC[C@]4(C)[C@H]3CC[C@]12C (stereo partly specified)	
0.24 µM	C/C=C1/CC[C@H]2[C@@H]3CCC4C[C@@H](NC(=O)c5ccc(C#N)cc5)CC[C@]4(C)[C@H]3CC[C@]12C (stereo partly specified)	
1.08 µM	C/C=C1/[C@H](O)C[C@H]2[C@@H]3CCC4C[C@H](N)CC[C@]4(C)[C@H]3CC[C@]12C (stereo partly specified)	
7.45 µM	C/C=C1/CC[C@H]2[C@@H]3CCC4C[C@H](N(C)C)CC[C@]4(C)[C@H]3CC[C@]12C (stereo partly specified)	
> 50 µM	C/C=C1/CC[C@H]2[C@@H]3CCC4C[C@@H](N5CCCCC5)CC[C@]4(C)[C@H]3CC[C@]12C (stereo partly specified)	
	C/C=C1/[C@H](O)C[C@H]2[C@@H]3CCC4C[C@H](NC)CC[C@]4(C)[C@H]3CC[C@]12C (stereo partly specified)	IC50 ([1]; mda-mb-231): Nd(Toxic)
> 50 µM	C/C=C1/CC[C@H]2[C@@H]3CCC4C[C@H](NCc5ccc(C#N)cc5)CC[C@]4(C)[C@H]3CC[C@]12C (stereo partly specified)	
2.48 µM	C/C=C1/CC[C@H]2[C@@H]3CCC4C[C@H](N5CCCCC5)CC[C@]4(C)[C@H]3CC[C@]12C (stereo partly specified)	
2.14 µM	C/C=C1/C(=O)C[C@H]2[C@@H]3CCC4C[C@@H](N(C)C)CC[C@]4(C)[C@H]3CC[C@]12C (stereo partly specified)	
24.2 µM	C/C=C1/CC[C@H]2[C@@H]3CCC4C[C@H](N5CCCC5)CC[C@]4(C)[C@H]3CC[C@]12C (stereo partly specified)	
32.8 µM	C/C=C1/[C@H](O)C[C@H]2[C@@H]3CCC4C[C@H](NCC)CC[C@]4(C)[C@H]3CC[C@]12C (stereo partly specified)	
0.03 µM	C/C=C1/C(=O)C[C@H]2[C@@H]3CCC4C[C@H](N5CCCCC5)CC[C@]4(C)[C@H]3CC[C@]12C (stereo partly specified)	inhibition [3]: Dose-dependent effect; Activity [4]: Non-Toxic; Activity [5]: Dose-dependent effect; inhibition [6]: Dose-dependent effect; Activity [7]: Dose-dependent effect; inhibition [8]: Dose-dependent effect; inhibition [9]: Dose-dependent effect; Activity [10]: Non-Toxic; Activity [11]: Active
15.9 µM	C/C=C1/[C@H](O)C[C@H]2[C@@H]3CCC4C[C@@H](NCc5ccc(C#N)cc5)CC[C@]4(C)[C@H]3CC[C@]12C (stereo partly specified)	
7.37 µM	C/C=C1/C(=O)C[C@H]2[C@@H]3CCC4C[C@H](N(C)C)CC[C@]4(C)[C@H]3CC[C@]12C (stereo partly specified)	
0.26 µM	C/C=C1/[C@H](O)C[C@H]2[C@@H]3CCC4C[C@H](N5CCCC5)CC[C@]4(C)[C@H]3CC[C@]12C (stereo partly specified)	
0.48 µM	C/C=C1/C(=O)C[C@H]2[C@@H]3CCC4C[C@@H](N)CC[C@]4(C)[C@H]3CC[C@]12C (stereo partly specified)	
	C/C=C1/C(=O)C[C@H]2[C@@H]3CCC4C[C@H](NC)CC[C@]4(C)[C@H]3CC[C@]12C (stereo partly specified)	IC50 ([1]; mda-mb-231): Nd(Toxic)
	C/C=C1/C(=O)C[C@H]2[C@@H]3CCC4C[C@@H](N5CCCC5)CC[C@]4(C)[C@H]3CC[C@]12C (stereo partly specified)	IC50 ([1]; mda-mb-231): Nd(Toxic)
1.21 µM	CC=C1CC[C@H]2[C@@H]3CCC4C[C@@H](NC)CC[C@]4(C)[C@H]3CC[C@]12C (stereo partly specified)	

IC50 [1, 14]	Compound	further results
0.3 µM	C/C=C1/C(=O)C[C@H]2[C@@H]3CCC4C[C@H](N)CC[C@]4(C)[C@H]3CC[C@]12C (stereo partly specified)	
5.51 µM	C/C=C1/CC[C@H]2[C@@H]3CCC4C[C@@H](N(C)C)CC[C@]4(C)[C@H]3CC[C@]12C (stereo partly specified)	
	C/C=C1/[C@H](O)C[C@H]2[C@@H]3CCC4C[C@@H](N5CCCC5)CC[C@]4(C)[C@H]3CC[C@]12C (stereo partly specified)	IC50 ([1]; mda-mb-231): Nd(Toxic)
0.85 µM	C/C=C1/[C@H](O)C[C@H]2[C@@H]3CCC4C[C@H](N5CCCCC5)CC[C@]4(C)[C@H]3CC[C@]12C (stereo partly specified)	
	C/C=C1/[C@H](O)C[C@H]2[C@@H]3CCC4C[C@@H](N(C)C)CC[C@]4(C)[C@H]3CC[C@]12C (stereo partly specified)	IC50 ([1]; mda-mb-231): Nd(Toxic)
> 50 µM	C/C=C1/C(=O)C[C@H]2[C@@H]3CCC4C[C@@H](N5CCCCC5)CC[C@]4(C)[C@H]3CC[C@]12C (stereo partly specified)	
26.7 µM	C/C=C1/CC[C@H]2[C@@H]3CCC4C[C@@H](NCc5ccc(C#N)cc5)CC[C@]4(C)[C@H]3CC[C@]12C (stereo partly specified)	
28.5 µM	C/C=C1/C(=O)C[C@H]2[C@@H]3CCC4C[C@@H](NCC)CC[C@]4(C)[C@H]3CC[C@]12C (stereo partly specified)	
> 50 µM	C/C=C1/C(=O)C[C@H]2[C@@H]3CCC4C[C@H](N5CCCC5)CC[C@]4(C)[C@H]3CC[C@]12C (stereo partly specified)	
0.84 µM	C/C=C1/C(=O)C[C@H]2[C@@H]3CCC4C[C@@H](NCc5ccc(C#N)cc5)CC[C@]4(C)[C@H]3CC[C@]12C (stereo partly specified)	
18.9 µM	C/C=C1/C(=O)C[C@H]2[C@@H]3CCC4C[C@@H](NC)CC[C@]4(C)[C@H]3CC[C@]12C (stereo partly specified)	
	C/C=C1/[C@H](O)C[C@H]2[C@@H]3CCC4C[C@@H](N)CC[C@]4(C)[C@H]3CC[C@]12C (stereo partly specified)	IC50 ([1]; mda-mb-231): Nd(Toxic)
	C/C=C1/C(=O)C[C@H]2[C@@H]3CCC4C[C@H](NCC)CC[C@]4(C)[C@H]3CC[C@]12C (stereo partly specified)	IC50 ([1]; mda-mb-231): Nd(Toxic)
4.77 µM	C/C=C1/[C@H](O)C[C@H]2[C@@H]3CCC4C[C@@H](NC)CC[C@]4(C)[C@H]3CC[C@]12C (stereo partly specified)	
	C[C@@H]1CC[C@@]2(NC1)O[C@H]1C[C@H]3[C@@H]4CC=C5C[C@@H](O[C@@H]6O[C@H](CO)[C@@H](O[C@@H]7O[C@@H](C)[C@H](O)[C@@H](O)[C@H]7O)[C@H](O)[C@H]6O[C@@H]6O[C@@H](C)[C@H](O)[C@@H](O)[C@H]6O)CC[C@]5(C)[C@H]4CC[C@]3(C)[C@H]1[C@@H]2C [SOLAMARGINE]	Activity [12]: 40%; Activity [13]: 40%
4.36 µM	C/C=C1/CC[C@H]2[C@@H]3CCC4C[C@@H](N5CCCC5)CC[C@]4(C)[C@H]3CC[C@]12C (stereo partly specified)	
2.34 µM	C/C=C1/C(=O)C[C@H]2[C@@H]3CCC4C[C@H](NCc5ccc(C#N)cc5)CC[C@]4(C)[C@H]3CC[C@]12C (stereo partly specified)	
0.38 µM	O=c1cc(N2CCOCC2)oc2c(-c3ccccc3)cccc12 [LY-294002]	
> 50 µM	CC=C1CC[C@H]2[C@@H]3CCC4C[C@H](NC)CC[C@]4(C)[C@H]3CC[C@]12C (stereo partly specified)	
	C/C=C1/[C@H](O)C[C@H]2[C@@H]3CCC4C[C@@H](NCC)CC[C@]4(C)[C@H]3CC[C@]12C (stereo partly specified)	IC50 ([1]; mda-mb-231): Nd(Toxic)
	C/C=C1/[C@H](O)C[C@H]2[C@@H]3CCC4C[C@H](NCc5ccc(C#N)cc5)CC[C@]4(C)[C@H]3CC[C@]12C (stereo partly specified)	IC50 ([1]; mda-mb-231): Nd(Toxic)

Compound	IC50 [1, 14]	further results
C/C=C1/CC[C@H]2[C@@H]3CCC4C[C@@H](NCC)CC[C@]4(C)[C@H]3CC[C@]12C (stereo partly specified)	0.17 µM	
C/C=C1/CC[C@H]2[C@@H]3CCC4C[C@H](NCC)CC[C@]4(C)[C@H]3CC[C@]12C (stereo partly specified)	20.2 µM	
C/C=C1/CC[C@H]2[C@@H]3CCC4C[C@H](N)CC[C@]4(C)[C@H]3CC[C@]12C (stereo partly specified)	2.21 µM	
C/C=C1/CC[C@H]2[C@@H]3CCC4C[C@@H](N)CC[C@]4(C)[C@H]3CC[C@]12C (stereo partly specified)	0.09 µM	
